Data as given in US20230085307A1, “PYRIDAZINONE COMPOUND AND HERBICIDE” (NISSAN CHEMICAL CORPORATION, priority 2019, published 2023).

Experiments:
Chinese sprangletop = assay: Test Example 3: herbicidal effect by foliage application, Wagner pot (Table 18, symbol D); assay type: in vivo, chinese sprangletop (Leptochloa chinensis)
Outline: (§1)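 Plants were sown in alluvial soil held under 0.1–0.5 cm standing water and grown 14 days in a greenhouse at 25–30 °C. An emulsifiable formulation, water-diluted to the set dose, was then sprayed onto the foliage, and effects were scored three weeks later using previously defined criteria.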

wild oat [1] = assay: Test Example 5: herbicidal effect by foliage application, plastic box (Table 20, symbol I); assay type: in vivo, wild oat (Avena fatua); conditions: foliage application, evaluated three weeks after application
Outline: (§2)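 Plants were sown into sterilized diluvial soil under about 1.5 cm cover and kept in a greenhouse at 25° C. to 30° C. Fourteen days on, foliage received an even spray of the diluted emulsion. Herbicidal or crop effect was judged three weeks afterwards.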

lambsquarters [2] = assay: Test Example 4: herbicidal effect by soil treatment (Table 19, symbol O); assay type: in vivo, lambsquarters (Chenopodium album); conditions: amount of applied herbicide 320 g/ha
Outline: (§3)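 Pre-emergence style soil spray: seeds under ~1.5 cm sterilized diluvial soil received a uniform coat of emulsion diluted to the predetermined herbicide amount. Greenhouse 25–30° C; readout at week three on previously defined criteria.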

Italian ryegrass [3] = assay: Test Example 5: herbicidal effect by foliage application, plastic box (Table 20, symbol K); assay type: in vivo, Italian ryegrass (Lolium multiflorum); conditions: foliage application, evaluated three weeks after application
Outline: as §2

persian speedwell [4] = assay: Test Example 4: herbicidal effect by soil treatment (Table 19, symbol R); assay type: in vivo, Persian speedwell (Veronica persica); conditions: amount of applied herbicide 320 g/ha
Outline: as §3

lambsquarters [5] = assay: Test Example 5: herbicidal effect by foliage application, plastic box (Table 20, symbol O); assay type: in vivo, lambsquarters (Chenopodium album); conditions: foliage application, evaluated three weeks after application
Outline: as §2

southern crabgrass [6] = assay: Test Example 5: herbicidal effect by foliage application, plastic box (Table 20, symbol F); assay type: in vivo, southern crabgrass (Digitaria ciliaris); conditions: foliage application, evaluated three weeks after application
Outline: as §2

windgrass [7] = assay: Test Example 4: herbicidal effect by soil treatment (Table 19, symbol L); assay type: in vivo, windgrass (Apera spica-venti); conditions: amount of applied herbicide 320 g/ha
Outline: as §3

green foxtail [8] = assay: Test Example 5: herbicidal effect by foliage application, plastic box (Table 20, symbol G); assay type: in vivo, green foxtail (Setaria viridis); conditions: foliage application, evaluated three weeks after application
Outline: as §2

redroot pigweed [9] = assay: Test Example 4: herbicidal effect by soil treatment (Table 19, symbol N); assay type: in vivo, redroot pigweed (Amaranthus retroflexus); conditions: amount of applied herbicide 320 g/ha
Outline: as §3

Japanese bulrush = assay: Test Example 1: herbicidal activity, application before weed generation under submerged conditions (Table 16, symbol B); assay type: in vivo, Japanese bulrush (Schoenoplectus juncoides); conditions: 320 g/ha applied herbicide
Outline: (§4)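 Alluvial soil was flooded to 4 cm depth, weed seeds were sown mixed and 2.5-leaf rice seedlings were transplanted. On sowing day, the compound's emulsion, diluted in water to a set dose, was applied to the water surface. Plants grew at 25–30 °C and were scored 0–5 after three weeks.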

redroot pigweed [10] = assay: Test Example 5: herbicidal effect by foliage application, plastic box (Table 20, symbol N); assay type: in vivo, redroot pigweed (Amaranthus retroflexus); conditions: foliage application, evaluated three weeks after application
Outline: as §2

persian speedwell [11] = assay: Test Example 5: herbicidal effect by foliage application, plastic box (Table 20, symbol R); assay type: in vivo, Persian speedwell (Veronica persica); conditions: foliage application, evaluated three weeks after application
Outline: as §2

rice flat sedge = assay: Test Example 3: herbicidal effect by foliage application, Wagner pot (Table 18, symbol E); assay type: in vivo, rice flat sedge (Cyperus iria)
Outline: as §1

late watergrass = assay: Test Example 1: herbicidal activity, application before weed generation under submerged conditions (Table 16, symbol A); assay type: in vivo, late watergrass (Echinochloa oryzicola); conditions: 320 g/ha applied herbicide
Outline: as §4

southern crabgrass [12] = assay: Test Example 4: herbicidal effect by soil treatment (Table 19, symbol F); assay type: in vivo, southern crabgrass (Digitaria ciliaris); conditions: amount of applied herbicide 320 g/ha
Outline: as §3

velvetleaf [13] = assay: Test Example 4: herbicidal effect by soil treatment (Table 19, symbol M); assay type: in vivo, velvetleaf (Abutilon theophrasti); conditions: amount of applied herbicide 320 g/ha
Outline: as §3

oval-leafed pondweed = assay: Test Example 1: herbicidal activity, application before weed generation under submerged conditions (Table 16, symbol C); assay type: in vivo, oval-leafed pondweed (Monochoria vaginalis); conditions: 320 g/ha applied herbicide
Outline: as §4

chickweed [14] = assay: Test Example 5: herbicidal effect by foliage application, plastic box (Table 20, symbol P); assay type: in vivo, common chickweed (Stellaria media); conditions: foliage application, evaluated three weeks after application
Outline: as §2

windgrass [15] = assay: Test Example 5: herbicidal effect by foliage application, plastic box (Table 20, symbol L); assay type: in vivo, windgrass (Apera spica-venti); conditions: foliage application, evaluated three weeks after application
Outline: as §2

blackgrass [16] = assay: Test Example 5: herbicidal effect by foliage application, plastic box (Table 20, symbol J); assay type: in vivo, blackgrass (Alopecurus myosuroides); conditions: foliage application, evaluated three weeks after application
Outline: as §2

green foxtail [17] = assay: Test Example 4: herbicidal effect by soil treatment (Table 19, symbol G); assay type: in vivo, green foxtail (Setaria viridis); conditions: amount of applied herbicide 320 g/ha
Outline: as §3

barnyard grass [18] = assay: Test Example 4: herbicidal effect by soil treatment (Table 19, symbol H); assay type: in vivo, barnyard grass (Echinochloa crus-galli); conditions: amount of applied herbicide 320 g/ha
Outline: as §3

wild oat [19] = assay: Test Example 4: herbicidal effect by soil treatment (Table 19, symbol I); assay type: in vivo, wild oat (Avena fatua); conditions: amount of applied herbicide 320 g/ha
Outline: as §3

blackgrass [20] = assay: Test Example 4: herbicidal effect by soil treatment (Table 19, symbol J); assay type: in vivo, blackgrass (Alopecurus myosuroides); conditions: amount of applied herbicide 320 g/ha
Outline: as §3

Italian ryegrass [21] = assay: Test Example 4: herbicidal effect by soil treatment (Table 19, symbol K); assay type: in vivo, Italian ryegrass (Lolium multiflorum); conditions: amount of applied herbicide 320 g/ha
Outline: as §3

velvetleaf [22] = assay: Test Example 5: herbicidal effect by foliage application, plastic box (Table 20, symbol M); assay type: in vivo, velvetleaf (Abutilon theophrasti); conditions: foliage application, evaluated three weeks after application
Outline: as §2

chickweed [23] = assay: Test Example 4: herbicidal effect by soil treatment (Table 19, symbol P); assay type: in vivo, common chickweed (Stellaria media); conditions: amount of applied herbicide 320 g/ha
Outline: as §3

barnyard grass [24] = assay: Test Example 3: herbicidal effect by foliage application, Wagner pot (Table 18, symbol H); assay type: in vivo, barnyard grass (Echinochloa crus-galli)
Outline: as §1

barnyard grass [25] = assay: Test Example 5: herbicidal effect by foliage application, plastic box (Table 20, symbol H); assay type: in vivo, barnyard grass (Echinochloa crus-galli); conditions: foliage application, evaluated three weeks after application
Outline: as §2

[26] = amount of applied herbicide 320 g/ha

CCSCc1ccc(-c2sc3ccc(F)cc3c2-c2c(O)c(C)nn(C)c2=O)cc1 [2-319]
herbicidal effect on D: Chinese sprangletop (Chinese sprangletop; [26]): 4 (Herbicidal rate of 70% or more and less than 90%) | I: wild oat, herbicidal effect (criteria 0-5) (wild oat [1]; AAH 320 g/ha): 4 (Herbicidal rate of 70% or more and less than 90%) | herbicidal effect on O: lambsquarters (lambsquarters [2]): 3 (Herbicidal rate of 40% or more and less than 70%) | K: Italian ryegrass, herbicidal effect (criteria 0-5) (Italian ryegrass [3]; AAH 320 g/ha): 4 (Herbicidal rate of 70% or more and less than 90%) | herbicidal effect on R: persian speedwell (persian speedwell [4]): 4 (Herbicidal rate of 70% or more and less than 90%) | O: lambsquarters, herbicidal effect (criteria 0-5) (lambsquarters [5]; AAH 320 g/ha): 5 (Herbicidal rate of 90% or more (almost completely withered)) | F: southern crabgrass, herbicidal effect (criteria 0-5) (southern crabgrass [6]; AAH 320 g/ha): 5 (Herbicidal rate of 90% or more (almost completely withered)) | herbicidal effect on L: windgrass (windgrass [7]): 1 (Herbicidal rate of 5% or more and less than 20%) | G: green foxtail, herbicidal effect (criteria 0-5) (green foxtail [8]; AAH 320 g/ha): 5 (Herbicidal rate of 90% or more (almost completely withered)) | herbicidal effect on N: redroot pigweed (redroot pigweed [9]): 4 (Herbicidal rate of 70% or more and less than 90%) | Herbicidal effect on B: Japanese bulrush (grade 0-5) (Japanese bulrush): 2 (Herbicidal rate of 20% or more and less than 40%) | N: redroot pigweed, herbicidal effect (criteria 0-5) (redroot pigweed [10]; AAH 320 g/ha): 5 (Herbicidal rate of 90% or more (almost completely withered)) | R: persian speedwell, herbicidal effect (criteria 0-5) (persian speedwell [11]; AAH 320 g/ha): 5 (Herbicidal rate of 90% or more (almost completely withered)) | herbicidal effect on E: rice flat sedge (rice flat sedge; [26]): 5 (Herbicidal rate of 90% or more (almost completely withered)) | Herbicidal effect on A: late watergrass (grade 0-5) (late watergrass): 4 (Herbicidal rate of 70% or more and less than 90%) | herbicidal effect on F: southern crabgrass (southern crabgrass [12]): 4 (Herbicidal rate of 70% or more and less than 90%) | herbicidal effect on M: velvetleaf (velvetleaf [13]): 3 (Herbicidal rate of 40% or more and less than 70%) | Herbicidal effect on C: oval-leafed pondweed (grade 0-5) (oval-leafed pondweed): 3 (Herbicidal rate of 40% or more and less than 70%) | P: chickweed, herbicidal effect (criteria 0-5) (chickweed [14]; AAH 320 g/ha): 5 (Herbicidal rate of 90% or more (almost completely withered)) | L: windgrass, herbicidal effect (criteria 0-5) (windgrass [15]; AAH 320 g/ha): 4 (Herbicidal rate of 70% or more and less than 90%) | J: blackgrass, herbicidal effect (criteria 0-5) (blackgrass [16]; AAH 320 g/ha): 4 (Herbicidal rate of 70% or more and less than 90%) | herbicidal effect on G: green foxtail (green foxtail [17]): 4 (Herbicidal rate of 70% or more and less than 90%) | herbicidal effect on H: barnyard grass (barnyard grass [18]): 3 (Herbicidal rate of 40% or more and less than 70%) | herbicidal effect on I: wild oat (wild oat [19]): 0 (Herbicidal rate of 5% or less (almost no effect)) | herbicidal effect on J: blackgrass (blackgrass [20]): 0 (Herbicidal rate of 5% or less (almost no effect)) | herbicidal effect on K: Italian ryegrass (Italian ryegrass [21]): 4 (Herbicidal rate of 70% or more and less than 90%) | M: velvetleaf, herbicidal effect (criteria 0-5) (velvetleaf [22]; AAH 320 g/ha): 5 (Herbicidal rate of 90% or more (almost completely withered)) | herbicidal effect on P: chickweed (chickweed [23]): 0 (Herbicidal rate of 5% or less (almost no effect)) | herbicidal effect on H: barnyard grass (barnyard grass [24]; [26]): 5 (Herbicidal rate of 90% or more (almost completely withered)) | H: barnyard grass, herbicidal effect (criteria 0-5) (barnyard grass [25]; AAH 320 g/ha): 5 (Herbicidal rate of 90% or more (almost completely withered))

Cc1nn(C)c(=O)c(-c2c(-c3ccc(OC(C)C)cc3)sc3ccc(Cl)cc23)c1O [2-107]
herbicidal effect on D (Chinese sprangletop), rating 0-5 (Chinese sprangletop; 320 g/ha): 0 (Herbicidal rate of 5% or less (almost no effect)) | herbicidal effect on I: wild oat (wild oat [1]; 320 g/ha): 0 (Herbicidal rate of 5% or less (almost no effect)) | O: lambsquarters, herbicidal effect rating (lambsquarters [2]): 0 (Herbicidal rate of 5% or less (almost no effect)) | herbicidal effect on K: Italian ryegrass (Italian ryegrass [3]; 320 g/ha): 0 (Herbicidal rate of 5% or less (almost no effect)) | R: persian speedwell, herbicidal effect rating (persian speedwell [4]): 5 (Herbicidal rate of 90% or more (almost completely withered)) | herbicidal effect on O: lambsquarters (lambsquarters [5]; 320 g/ha): 3 (Herbicidal rate of 40% or more and less than 70%) | herbicidal effect on F: southern crabgrass (southern crabgrass [6]; 320 g/ha): 3 (Herbicidal rate of 40% or more and less than 70%) | L: windgrass, herbicidal effect rating (windgrass [7]): 0 (Herbicidal rate of 5% or less (almost no effect)) | herbicidal effect on G: green foxtail (green foxtail [8]; 320 g/ha): 4 (Herbicidal rate of 70% or more and less than 90%) | N: redroot pigweed, herbicidal effect rating (redroot pigweed [9]): 0 (Herbicidal rate of 5% or less (almost no effect)) | Herbicidal effect on B: Japanese bulrush (grade 0-5) (Japanese bulrush): 0 (Herbicidal rate of 5% or less (almost no effect)) | herbicidal effect on N: redroot pigweed (redroot pigweed [10]; 320 g/ha): 4 (Herbicidal rate of 70% or more and less than 90%) | herbicidal effect on R: persian speedwell (persian speedwell [11]; 320 g/ha): 5 (Herbicidal rate of 90% or more (almost completely withered)) | herbicidal effect on E (rice flat sedge), rating 0-5 (rice flat sedge; 320 g/ha): 2 (Herbicidal rate of 20% or more and less than 40%) | Herbicidal effect on A: late watergrass (grade 0-5) (late watergrass): 2 (Herbicidal rate of 20% or more and less than 40%) | F: southern crabgrass, herbicidal effect rating (southern crabgrass [12]): 0 (Herbicidal rate of 5% or less (almost no effect)) | M: velvetleaf, herbicidal effect rating (velvetleaf [13]): 0 (Herbicidal rate of 5% or less (almost no effect)) | Herbicidal effect on C: oval-leafed pondweed (grade 0-5) (oval-leafed pondweed): 0 (Herbicidal rate of 5% or less (almost no effect)) | herbicidal effect on P: chickweed (chickweed [14]; 320 g/ha): 5 (Herbicidal rate of 90% or more (almost completely withered)) | herbicidal effect on L: windgrass (windgrass [15]; 320 g/ha): 4 (Herbicidal rate of 70% or more and less than 90%) | herbicidal effect on J: blackgrass (blackgrass [16]; 320 g/ha): 3 (Herbicidal rate of 40% or more and less than 70%) | G: green foxtail, herbicidal effect rating (green foxtail [17]): 0 (Herbicidal rate of 5% or less (almost no effect)) | H: barnyard grass, herbicidal effect rating (barnyard grass [18]): 0 (Herbicidal rate of 5% or less (almost no effect)) | I: wild oat, herbicidal effect rating (wild oat [19]): 0 (Herbicidal rate of 5% or less (almost no effect)) | J: blackgrass, herbicidal effect rating (blackgrass [20]): 0 (Herbicidal rate of 5% or less (almost no effect)) | K: Italian ryegrass, herbicidal effect rating (Italian ryegrass [21]): 0 (Herbicidal rate of 5% or less (almost no effect)) | herbicidal effect on M: velvetleaf (velvetleaf [22]; 320 g/ha): 3 (Herbicidal rate of 40% or more and less than 70%) | P: chickweed, herbicidal effect rating (chickweed [23]): 0 (Herbicidal rate of 5% or less (almost no effect)) | herbicidal effect on H (barnyard grass), rating 0-5 (barnyard grass [24]; 320 g/ha): 4 (Herbicidal rate of 70% or more and less than 90%) | herbicidal effect on H: barnyard grass (barnyard grass [25]; 320 g/ha): 4 (Herbicidal rate of 70% or more and less than 90%)
